Patent US20050075315A1, “Antitumor agent” (FUSO PHARMACEUTICAL INDUSTRIES, LTD, priority 2002, published 2005)

Assays:
Sarmonella typhii = conditions: on Sarmonella typhii; cited from earlier work
[1] = test system: STKM (a stomach cancer cell line); test: DNA Laddering assay; format: cell-based; conditions: 2 ml of BA of 2.5 mg/ml, 48 hrs, FIG. 6
Text: (§1) The DNA Laddering assay, the TUNEL assay and the Caspase assay as described in the examples below are general methods for determining whether a cell arrives at death through an apoptosis route or not. For the DNA Laddering assay, see Shin Apoptosis Jikken-ho (edited by K. Tsujimoto, S. Tone, T. Yamada, 59-66, Yodosya, 1999). For the TUNEL assay, see Shin Apoptosis Jikken-ho (edited by K. Tsujimoto, S. Tone, T. Yamada, 67-74, Yodosya, 1999). For the Caspase assay, see Shin Apoptosis Jikken-ho (edited by K. Tsujimoto, S. Tone, T. Yamada, 198-200, Yodosya, 1999).
(§2) For a cell group capable of being guided to the cell mortality, it was determined that through which route, apoptosis or necrosis, the cell arrived at death. Namely, BA was added to the cell at a certain concentration or more necessary to guide to the cell mortality, and the cell was collected after confirmation of the change in shape. Then, the DNA Laddering assay with gel electrophoresis to investigate the DNA fragmentation and the TUNEL assay with the cell dyeing were carried out.
2 ml of BA of 2.5 mg/ml was added to 1.5×10^6 cells (STKM) followed by incubating at 37° C. for 48 hrs to collect the cells. The collected cells were centrifuged and added in 100 μl of lysis buffer (10 mM EDTA, 50 mM Tris-HCl, pH 8.0, 0.5% SDS, 0.5 mg/ml Proteinase K), followed by incubating at […] for 3 hrs. […]

[2] = test system: stomach cancer cell line (STKM); test: cell shape by inverted microscope in vitro; format: cell-based; conditions: BA 2.5 mg/ml, 37° C. for 48 hrs, FIG. 3
Experimental: (§3) To 1×10^6 cells of a stomach cancer cell line (STKM), BA was added by such proportional concentrations as 1, 1.5, 2.0, 2.5 and 5 mg/ml. An equal amount of the physiological saline was added to prepare a control sample. All the samples were incubated at 37° C. for 48 hrs. The shape of the cell was studied through an inverted microscope. The adhesiveness and the mortality of the cell were measured by the calorimetric assay and the thymidine incorporate assay.
One ml of BA of 2.5 mg/ml was added to 1×10^6 cells followed by incubating at 37° C. for 48 hrs to get the image as shown in FIG. 3. The equal amount of physiological saline was similarly added, followed by incubating in the same way to get the control. […] The nucleus also got remarkably blackened. The above result confirms that a stomach cancer cell arrived at death in vitro.

STKM cells = test: TUNEL assay; format: cell-based; conditions: 2 ml of BA of 2.5 mg/ml, 48 hrs, FIG. 7
Text: as §1, §2
2 ml of BA of 2.5 mg/ml was added to 1.5×10^5 cells (STKM) on a slide glass, followed by incubating at 37° C. for 48 hrs and fixing with 1% paraformaldehyde in PBS at a room temperature for 10 min. For a control, the equal amount of physiological saline was added. […]

[3] = test system: stomach cancer cell line (STKM); test: cell adhesiveness test by the calorimetric assay; format: cell-based; conditions: 37° C. for 48 hrs, OD 600 nm, FIG. 1
Text: The calorimetric assay as described in the examples below can be employed for assaying the adhesiveness of a cell, and the thymidine incorporate assay can be employed for assaying the mortality of a cell. These two assays are general methods for determining the behavior of a tumor cell. For the colorimetric assay, see Enhancer sequences of DF3 gene regulate expression of the herpes simplex virus thymidine kinase gene and confer sensitivity of human breast cancer cell to ganciclovir: Manome Y, Abe M, Hagen F. M, Fine A. H, and Kufe W. D, Cancer Research 54:5408-5413, 1994. For the thymidine incorporate assay, see Meneki Jikken Sousa-ho II (edited by S. Uda, S. Konda, Y. Honsho, T, Hamaoka, 773-774, Nanko-do, 1995).
as §3
(1) The Cell Adhesiveness Test by the Calorimetric Assay:
100% gulutalaldehyde was added to each of samples by a ¼ the medium amount (250 μl), then left to stand at a room temperature for 15 min. […]

Escherichia coli = conditions: on Escherichia coli; cited from earlier work
[4] = test system: stomach cancer cell line (STKM) tumor; test: antitumor effect on STKM tumor in nude mouse in vivo
Experimental: 1×10^8 cells of a stomach cancer cell line (STKM) were subcutaneously injected in the back of a nude mouse. When a tumor grew to have a diameter of 5 mm or more after 8 weeks, BA was administrated to the tumor or around the tumor by 4 mg/0.5 ml twice a week for 4 weeks. For a control, 0.5 ml of physiological saline was locally injected to the tumor. The tumor diameter was measured. The tumor tissue was taken out and subjected to the H-E dyeing to observe with a microscope.
A stomach cancer cell line (STKM) was implanted in a living body. When a tumor grew to have a diameter of 5 mm or more, BA was administrated by 4 mg/0.5 ml twice a week for 4 weeks. […] The tumor diameter decreased to the ½ or less after the 32 mg administration (4 weeks).
FIGS. 4 and 5 show the images obtained by extracting the tumor after 4 weeks of administration, fixing with 10% formalin, slicing to 3 μm pieces and H-E dyeing. […] The above result confirms that the stomach cancer cell arrived at death in vivo.

[5] = in body; cited from earlier work
[6] = test system: large bowel cancer cell line DLD; test: tests as in Examples 1, 2 and 3; format: cell-based
Experimental: (§4) The tests were carried out on a breast cancer cell line (MCF-7, BSMZ), a large bowel cancer cell line (DLD, LOVO), a thyroid gland cancer cell line (SW1736), and a pancreas cancer cell line (PA-1) in the same ways as in Examples 1, 2, and 3. As the result, the cell mortality began with about 1.5 mg/ml of BA to increase in proportion to the BA concentration, same as adhesiveness thereof.

[7] = test system: thyroid gland cancer cell line SW1736; test: tests as in Examples 1, 2 and 3; format: cell-based
Experimental: as §4

[8] = test system: breast cancer cell line MCF-7; test: tests as in Examples 1, 2 and 3; format: cell-based
Experimental: as §4

[9] = test system: large bowel cancer cell line LOVO; test: tests as in Examples 1, 2 and 3; format: cell-based
Experimental: as §4

[10] = test system: breast cancer cell line BSMZ; test: tests as in Examples 1, 2 and 3; format: cell-based
Experimental: as §4

[11] = test system: pancreas cancer cell line PA-1; test: tests as in Examples 1, 2 and 3; format: cell-based
Experimental: as §4

[12] = test system: umbilical cord cell line (Huvec); test: colorimetric assay on a normal cell; format: cell-based; conditions: FIG. 10
Experimental: (§5) 100% gulutalaldehyde was added to each of samples by a ¼ the medium amount (250 μl), then left to stand at a room temperature for 15 min. After washing, 250 μl of 0.05% Methylene Blue in PBS was added and then left to stand at a room temperature for 15 min. After washing, 250 μl of 0.33N HCl was added, followed by leaving to stand at a room temperature for 15 min and measuring the OD (600 nm).
(§6) In order to confirm that the BA administration effects specifically a cancer cell to arrive at death, the colorimetric assay was carried out on a normal cell, that is, an umbilical cord cell line (Huvec) and a lung cell line (WI38), in the same way as in Example 1. The stomach cancer cell line (STKM) was used for a control.

lung cell line (WI38) = test: colorimetric assay on a normal cell; format: cell-based; conditions: FIG. 10
Experimental: as §5, §6

Caspase-3 = Caspase-3 activity assay; format: cell-based; conditions: 2 ml of BA of 2.5 mg/ml
Text: as §1
(§7) To 1.5×10^6 cells, 2 ml of BA of 2.5 mg/ml for a test sample, the equal amount of physiological saline for a negative control sample, and Arac 1×10^−5M (Kirosaito, Nippon Shinyaku) for a positive control sample were added respectively, each of which was followed by incubating at 37° C. for 48 hrs to recover the cells. Then, the CPP32/Caspase-3, -8 Colorimetric Protease Assay kit (MBL Co.) was applied to the samples. The application was briefly as follows: • 1. […]

Staphylococcus aureus = conditions: on Staphylococcus aureus; cited from earlier work
Caspase-8 = Caspase-8 activity assay; format: cell-based; conditions: 2 ml of BA of 2.5 mg/ml, 48 hrs
Text: as §1, §7

## OCc1ccccc1 [BA, Benzyl alcohol]
Sarmonella typhii
  phenol coefficient: 0.4
[1]
  DNA laddering: No laddering was recognized
[2]
  cell shape: cell shape changed from a spindle to a circle and got swollen
STKM cells
  Digoxigenin dyeing in the nucleus (TUNEL): no Digoxigenin dyeing image in the nucleus
[3]
  BA concentration at which cell adhesiveness begins to decrease: about 1.5 mg/ml
Escherichia coli
  phenol coefficient: 0.6
[4]; nude mouse, 4 mg/0.5 ml twice a week to or around the tumor, 16 mg administration (2 weeks)
  tumor diameter compared with the control: contracted in diameter compared with the control
[4]; nude mouse, 4 mg/0.5 ml twice a week to or around the tumor, after the 32 mg administration (4 weeks)
  tumor diameter decrease: ½
[4]; tumor extracted after 4 weeks of administration, FIG. 5
  H-E dyed tumor tissue image: cells were scattered sparsely with the swollen cytoplasm, appearance of the inclusion bodies and contraction of the nucleus
[5]
  metabolism and excretion: converted to benzoic acid in body and excreted as hippuric acid
[6]
  BA concentration at which cell mortality begins to increase (same as adhesiveness): about 1.5 mg/ml
  route of cell death: did not arrive at death through an apoptosis route, but through a necrosis one
[7]
  BA concentration at which cell mortality begins to increase (same as adhesiveness): about 1.5 mg/ml
  route of cell death: did not arrive at death through an apoptosis route, but through a necrosis one
[8]
  BA concentration at which cell mortality begins to increase (same as adhesiveness): about 1.5 mg/ml
  route of cell death: did not arrive at death through an apoptosis route, but through a necrosis one
[9]
  BA concentration at which cell mortality begins to increase (same as adhesiveness): about 1.5 mg/ml
  route of cell death: did not arrive at death through an apoptosis route, but through a necrosis one
[10]
  BA concentration at which cell mortality begins to increase (same as adhesiveness): about 1.5 mg/ml
  route of cell death: did not arrive at death through an apoptosis route, but through a necrosis one
[11]
  BA concentration at which cell mortality begins to increase (same as adhesiveness): about 1.5 mg/ml
  route of cell death: did not arrive at death through an apoptosis route, but through a necrosis one
[12]
  cell death effect compared to STKM: lower effect compared to the STKM
Lung cell line (WI38)
  resistance to BA compared with Huvec: more resistant to BA than the Huvec
Lung cell line (WI38); colorimetric assay
  cell death effect compared to STKM: lower effect compared to the STKM
Caspase-3; 37° C. for 48 hrs, FIG. 8
  Caspase-3 activity: 45.4 RFI/well/Hr
Caspase-3; 48 hrs, p<0.001
  Caspase-3 activity compared with positive control (Arac): significantly lower than that of the positive control
Staphylococcus aureus
  phenol coefficient: 0.5
Caspase-8; FIG. 9
  Caspase-8 activity compared with positive control (Arac): significantly lower than that of the positive control
Caspase-8; FIGS. 8, 9
  Caspase activity compared with negative control (physiological saline): almost equal to that of the negative control
